The source of these data is publication PMC4688987, “Characterization of Toxoplasma gondii glyoxalase 1 and evaluation of inhibitory effects of curcumin on the enzyme and parasite cultures” (Parasites & Vectors, 2015).

For the assay, the target named is T1, rTgGlo1 (recombinant Toxoplasma gondii glyoxalase 1) (Toxoplasma gondii, UniProt A0A7J6JV59).
T1 construct: gene TGRH88_062270; full-length ORF (1008 nt, printed 336 residues) in pRSETb, His-tagged, E. coli BL21(DE3)pLysS; S-hexylglutathione-agarose then Ni-NTA; two glyoxalase domains 20-167 and 181-325
T1 sequence (A0A7J6JV59 1-336): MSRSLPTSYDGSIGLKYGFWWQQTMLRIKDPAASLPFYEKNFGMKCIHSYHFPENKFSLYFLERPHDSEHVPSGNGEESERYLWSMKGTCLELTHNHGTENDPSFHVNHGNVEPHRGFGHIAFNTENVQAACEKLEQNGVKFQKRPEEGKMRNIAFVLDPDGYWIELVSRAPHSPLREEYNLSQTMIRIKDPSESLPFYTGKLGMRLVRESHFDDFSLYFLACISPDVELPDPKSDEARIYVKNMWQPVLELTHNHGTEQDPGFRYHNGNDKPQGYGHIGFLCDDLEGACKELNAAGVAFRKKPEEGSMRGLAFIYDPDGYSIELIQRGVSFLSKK
Description: spectrophotometric at […] nm, Lineweaver-Burk. In kind it is biochemical.

The structures appear in SMILES notation.

Broadly, the Ki is the equilibrium dissociation constant of an inhibitor or competing ligand from its target. Consider `COc1cc(/C=C/C(=O)CC(=O)/C=C/c2ccc(O)c(OC)c2)ccc1O` [curcumin], for which the inhibition constant Ki came to 12.9 ± 0.5 µM.
